What was measured:
Dermale Fibroblasten = experiment: Protein carbonyls in vitro (ELISA) in UV-A irradiated and non-irradiated fibroblasts; format: cell-based, menschlich; conditions: for durch UV-A-Bestrahlung induzierter Anstieg des Proteincarbonyl-Gehalts: summary in words of the fibroblast results
Procedure: (§1) Dermale Fibroblasten (isoliert aus menschlicher Vorhaut) wurden bei 37°C und 5 Vol.-% CO2 mit Dulbecco's Minimal Essential Medium High Glucose unter Zusatz von 1 Gew.-% Glutamax, 1 Gew.-% Penicillin/Streptomycin und 10 Gew.-% fetalem Kälberserum kultiviert. Zur UV-A Bestrahlung mittels eines Teilkörperbestrahlungshimmels Typ Sellamed 2000 (Dr. Sellmeier; Bestrahlungsspektrum: 340-400 nm, Maximum: 360-380 nm) wurden die Zellen in Petrischalen ausplattiert (ca. 3,8 x 10^4 Zellen/cm^2; zuzüglich 2 Tage Wachstum, danach noch subkonfluent), das Zellmedium abgesaugt, die Zellen einmal mit PBS gewaschen und die UV-A Bestrahlung anschließend in PBS durchgeführt (Dosierung über Zeitintervall bis zu 14min bei […]). Nach UV-A Bestrahlung und Entfernung des PBS wurden die Zellen wieder mit Zellmedium versetzt und bis zur Zellernte bei 37°C, 5 Vol.-% CO2 aufbewahrt. Nach Zelltrypsinierung und -schabung erfolgte unter Zusatz von hypotonem Salzpuffer (10 mM HEPES, 24 mM KCl, 10 mM MgCl2, pH 7,5) und Anwendung der Frier-Tau-Technik die Herstellung des Zelllysats. Nicht lysierte Zellen sowie Membranen und Zellkerne wurden durch zehnminütige Zentrifugation bei 14000 rpm und 4°C abgetrennt.
(§2) Getestete Substanzen: • Natriumascorbylphosphat (0,025 mg/ml), BASF, entsprechend einem Aktivsubstanzgehalt in der Testlösung von 0,0025 Gew.-% • Hypotaurin 0,25 (mg/ml), Siber Hegner (entsprechend einem Aktivsubstanzgehalt in der Testlösung von 0,025 Gew.-%) • Kombuchka (7,5 mg/ml), Sederma (entsprechend einem Aktivsubstanzgehalt in der Testlösung von 0,02 - 0,053 Gew.-%) • Glistin (0,5 mg/ml), Exsymol (entsprechend 4,5 - 5,5' 10^-4 Gew.-% Glutamylamidoethylindol in der Testlösung) • Gingkoselect Phytosome (0,15 mg/ml), Indena (entsprechend 0,9 - 1,8 · 10^-5 Gew.-% […]-Aktivsubstanz in der Testlösung), wird vom Hersteller als Antioxidans ausgelobt.
Fibroblasten wurden für 16 Stunden mit Antioxidantien-haltigem Medium versetzt. Nach UV-A Bestrahlung in PBS wurden die Fibroblasten anschließend wieder für 3 Stunden mit Antioxidantien-haltigem Medium versetzt und lysiert. Die Detektion der Proteincarbonyle erfolgte per ELISA Technik nach Buss et al. mit Veränderungen nach Sitte et al.. Das Zelllysat wurde mit Dinitrophenylhydrazin versetzt, und die gebildeten Hydrazone wurden mit Hilfe des primären Antikörpers Anti-Dinitrophenyl-Rabbit-IgG detektiert. Als sekundärer Antikörper wurde der Anti-Rabbit-IgG-Antikörper (Peroxidase-konjugiert) verwendet und die Menge des gebundenen, sekundären Antikörpers nach Entwicklung mit o-Phenylendiamin und Wasserstoffperoxid detektiert.

Proteasom = experiment: Proteasome activity (suc-LLVY-MCA hydrolysis) in lysate of treated fibroblasts; format: cell-based, menschlich
Procedure: as §1, §2
Die Behandlung der Fibroblasten mit Antioxidantien erfolgte wie unter 2.3.3. Das Zelllysat wurde mit einem Puffer, der Tris-HCl (pH=7,8 bei 37°C), KCI, Mg-Acetat, MgCl2 und Dithiothreitol enthält, versetzt. Nach Zugabe von 10µl einer 2mM Stammlösung von suc-LLVY-MCA (N-Succinyl-Leucin-Leucin-Valin-Tyrosin-4-Methyl-cumaryl-7-amid) erfolgte eine 30-minütige Inkubation bei 37°C. Anschließend wurde die Fluoreszenz des Hydrolyseprodukts MCA (4-Methyl-cumaryl-7-amid) am Fluorimeter bestimmt (Anregungswellenlänge: 390 nm, Detektionswellenlänge: 460nm) und die MCA-Konzentration unter Verwendung einer Standardreihe bestimmt.

[1] = bestrahlt (UV-A), unbehandelt bestrahlt = 171,43, test concentrations: Natriumascorbylphosphat 0,025 mg/ml, Hypotaurin 0,25 mg/ml, Kombuchka 7,5 mg/ml, Glistin 0,5 mg/ml, Gingkoselect Phytosome 0,15 mg/ml
[2] = bestrahlt (UV-A), unbehandelt bestrahlt = 23,41, unbehandelt und unbestrahlt = 100 %
[3] = unbestrahlt, unbehandelt = 100 %

SMILES	Proteincarbonyl-Gehalt [%, relativ zum unbehandelten und unbestrahlten Zustand] (Dermale Fibroblasten; [1])	durch UV-A-Bestrahlung induzierter Anstieg des Proteincarbonyl-Gehalts (Dermale Fibroblasten)	Proteincarbonyl-Gehalt [%, relativ zum unbehandelten und unbestrahlten Zustand] (Dermale Fibroblasten; unbestrahlt, unbehandelt = 100)	Proteasomaktivität MW (%) (Proteasom; [2])	Proteasomaktivität MW (%) (Proteasom; [3])
NC(CCC(=O)O)C(=O)NCCc1c[nH]c2ccccc12 (stereo not drawn) [Glistin, Glutamylamidoethylindol]	139,96%	reduzieren	112,69%	24,94%	119,32%
NCCS(=O)O [Hypotaurin]	151,3%	reduzieren	128,32%	32,9%	144,37%
O=C1O[C@H]([C@@H](O)CO)C(O)=C1OP(=O)(O)O [Natriumascorbylphosphat]	124,18%	reduzieren	86,82%	33,36%	104,74%
